Legend:
OATP1B3 = biological target: T1, OATP1B3 (Homo sapiens, UniProt Q9NPD5); assay: OATP1B3 inhibition, 8-FcA uptake in HEK-OATP1B3 cells; type: in vitro ADME
T1 construct: expressed in transfected cells; host or cells: HEK293 (HEK-OATP1B3; gift of D. Keppler)
Protocol: (§1) HEK293 cells. For assessing inhibition of OATP1B1 and OATP1B3, the human embryonic kidney cell line HEK293 stably transfected with OATP1B1 (HEK-OATP1B1), OATP1B3 (HEK-OATP1B3), or the empty control vector (HEK293-VCG418) were used. Cells were cultured under standard cell culture conditions with DMEM supplemented with 10% FCS, 2 mM of glutamine, 100 U/mL of penicillin, 100 µg/mL of streptomycin sulfate, and 800 µg/mL of G418 to maintain over-expression. Cells were kindly provided by D. Keppler (German Cancer Research Centre, Heidelberg, Germany).
(§2) Inhibition of OATP1B1 and OATP1B3 was analyzed in HEK-OATP1B1 and HEK-OATP1B3 cells by quantifying the uptake of the fluorescent substrate 8-FcA by flow cytometry as described previously. HEK293-VCG418 cells were used as a control. Inhibition of OATPs leads to a reduced uptake of 8-FcA into the cells. Each experiment was performed at least in triplicate, and venetoclax was tested from 0.05 up to 100 µM.

MDCKII = assay: Growth inhibition assay in MDCKII cells; type: cell-based; conditions: Canis lupus familiaris, MDCK-II; MDCKII parental cells
Excerpt: MDCKII cells. The transporter over-expressing cell lines MDCKII-MDR1 [5], MDCKII-MRP2 [6], and MDCKII-BCRP [7] and the corresponding parental cell line MDCKII were used to assess the sensitivity of cells with and without P-gp, multidrug resistance-associated protein 2 (MRP2/ABCC2), or BCRP expression. Moreover, MDCKII-BCRP cells were used to assess BCRP inhibition by venetoclax. MDCKII over-expressing cell lines were kindly provided by A. H. Schinkel and P. Borst (Amsterdam, The Netherlands). The parental cell line MDCKII (available at ATCC, Manassas, VA, USA) was used as a control. The cells were cultured in Dulbecco’s Modified Eagle’s Medium (DMEM) containing 10% FCS, 2 mM of glutamine, 100 U/mL of penicillin, and 100 µg/mL of streptomycin sulfate.
Growth inhibition assays in LS180 cells were conducted to determine suitable maximum concentrations for the induction assay without profound antiproliferative effects. Proliferation was quantified by crystal violet staining of the surviving cells as described previously. Each experiment was performed at least in triplicate with n = 8 wells for each concentration (0.1–100 µM). The IC20 for proliferation inhibition by venetoclax was 8.4 ± 1.0 µM; thus, the maximum concentration for the induction assay was set to 10 µM, ensuring that about 80% of the cells will survive. […]

CYP1A2 [1] = assay: Induction assay, CYP1A2 mRNA by real-time RT-PCR in LS180 cells; type: in vitro ADME, human; conditions: four days, 10 µM
Protocol: (§3) LS180 cells. The human colon adenocarcinoma cell line LS180 (available at ATCC, Manassas, VA, USA) is one of the standard models for investigating pregnane X receptor (PXR) and aryl hydrocarbon receptor (AhR) mediated induction and was thus used for induction experiments. Cells were cultured under standard cell culture conditions with DMEM supplemented with 10% FCS, 2 mM of glutamine, 100 U/mL of penicillin, 100 µg/mL of streptomycin sulfate, and 0.1 mM of nonessential amino acids.
(§4) For the induction experiments, LS180 cells were seeded in 75 cm^2 culturing flasks and incubated for three days. […]
(§5) RNA was isolated using the GenElute™ Mammalian Total RNA Miniprep Kit, and cDNA was synthesized with the RevertAid™ H Minus First Strand cDNA Synthesis Kit according to the manufacturer's instructions. mRNA expression was quantified by real-time RT-PCR with the LightCycler® 480 (Roche Applied Science, Mannheim, Germany) as described previously. […] Data were evaluated via calibrator-normalized relative quantification with efficiency correction using the LightCycler® 480 software version 1.5 (Roche Applied Science, Mannheim, Germany). […] The following target genes were quantified: CYP1A1, CYP1A2, CYP3A4, ABCB1, ABCC2, ABCG2, SLCO1B1 (coding for OATP1B1), UDP-glucuronosyltransferase 1A3 (UGT1A3), and UGT1A9.

UGT1A9 = assay: Induction assay, UGT1A9 mRNA by real-time RT-PCR in LS180 cells; type: in vitro ADME, human; conditions: four days, 10 µM
Protocol: as §3, §4, §5

OATP1B1 = biological target: T2, OATP1B1 (Homo sapiens, UniProt Q9Y6L6); assay: OATP1B1 inhibition, 8-FcA uptake in HEK-OATP1B1 cells; type: in vitro ADME
T2 construct: expressed in transfected cells; host or cells: HEK293 (HEK-OATP1B1; gift of D. Keppler)
Protocol: as §1, §2

CYP1A1 = assay: Induction assay, CYP1A1 mRNA by real-time RT-PCR in LS180 cells; type: in vitro ADME, human; conditions: four days, 10 µM
Protocol: as §3, §4, §5

CYP1A2 [2] = biological target: T3, CYP1A2 (Homo sapiens, UniProt P05177); assay: CYP1A2 inhibition, P450-Glo CYP1A2 Screening System; type: in vitro ADME; conditions: luciferin-ME substrate, 0.05–100 µM tested
T3 construct: purchased Promega Corporation (Madison, WI, USA)
Protocol: Inhibition studies for CYP2B6, CYP2D6, CYP2C19 and CYP3A4 were performed with the CYP2B6/EFC, CYP2D6/AMMC, the CYP2C19/CEC, and the CYP3A4/BFC High Throughput Inhibitor Screening Kit according to the manufacturer’s instructions. The kits contain the respective recombinant CYP and fluorogenic substrates, which are blocked dyes emitting a fluorescence signal when cleaved by the enzyme. For testing CYP1A2 inhibition, the P450-Glo CYP1A2 Screening System was used according to the manufacturer’s instructions. The kit contains the luminogenic CYP1A2 substrate luciferin-ME, which is converted by CYP1A2 into luciferin-generating light when incubated with the luciferin detection reagent of the kit. Eight concentrations of venetoclax in duplicates (0.009–20 µM) were tested in the fluorescence assays, and eight concentrations in triplicate (0.05–100 µM) were tested for the luminogenic assay. Each experiment was conducted in triplicate.

T1 sequence (Q9NPD5 whole entry): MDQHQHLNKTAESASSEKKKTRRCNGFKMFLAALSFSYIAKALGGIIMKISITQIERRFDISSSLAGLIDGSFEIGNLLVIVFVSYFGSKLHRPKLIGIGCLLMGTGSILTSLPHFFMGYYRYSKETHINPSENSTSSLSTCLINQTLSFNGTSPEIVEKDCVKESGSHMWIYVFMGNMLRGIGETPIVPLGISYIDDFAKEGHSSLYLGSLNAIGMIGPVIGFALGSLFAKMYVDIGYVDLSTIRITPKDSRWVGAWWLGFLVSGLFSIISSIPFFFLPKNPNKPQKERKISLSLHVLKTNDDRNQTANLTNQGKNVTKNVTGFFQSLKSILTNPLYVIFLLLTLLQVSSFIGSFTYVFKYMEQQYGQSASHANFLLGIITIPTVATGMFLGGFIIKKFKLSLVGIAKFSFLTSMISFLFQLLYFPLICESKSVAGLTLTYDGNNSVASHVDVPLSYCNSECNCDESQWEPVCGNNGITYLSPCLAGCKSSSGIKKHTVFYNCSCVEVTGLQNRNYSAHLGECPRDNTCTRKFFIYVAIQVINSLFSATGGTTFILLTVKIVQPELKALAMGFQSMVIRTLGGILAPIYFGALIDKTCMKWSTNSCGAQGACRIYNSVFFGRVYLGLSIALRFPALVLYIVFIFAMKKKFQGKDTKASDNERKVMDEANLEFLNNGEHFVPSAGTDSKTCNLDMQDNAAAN
T3 sequence (P05177 whole entry): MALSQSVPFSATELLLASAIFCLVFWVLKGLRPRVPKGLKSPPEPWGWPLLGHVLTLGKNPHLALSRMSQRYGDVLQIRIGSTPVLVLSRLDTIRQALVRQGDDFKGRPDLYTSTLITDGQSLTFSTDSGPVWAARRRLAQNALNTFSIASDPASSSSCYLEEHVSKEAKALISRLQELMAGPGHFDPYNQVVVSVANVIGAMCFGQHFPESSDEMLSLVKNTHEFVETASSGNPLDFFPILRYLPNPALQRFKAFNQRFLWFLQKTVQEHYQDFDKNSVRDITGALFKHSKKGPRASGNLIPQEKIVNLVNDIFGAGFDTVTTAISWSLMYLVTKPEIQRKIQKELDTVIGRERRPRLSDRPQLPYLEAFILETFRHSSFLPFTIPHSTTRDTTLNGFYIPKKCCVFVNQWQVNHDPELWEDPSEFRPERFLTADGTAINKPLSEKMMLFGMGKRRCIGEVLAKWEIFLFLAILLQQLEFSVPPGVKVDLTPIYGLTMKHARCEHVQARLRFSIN
T2 sequence (Q9Y6L6 whole entry): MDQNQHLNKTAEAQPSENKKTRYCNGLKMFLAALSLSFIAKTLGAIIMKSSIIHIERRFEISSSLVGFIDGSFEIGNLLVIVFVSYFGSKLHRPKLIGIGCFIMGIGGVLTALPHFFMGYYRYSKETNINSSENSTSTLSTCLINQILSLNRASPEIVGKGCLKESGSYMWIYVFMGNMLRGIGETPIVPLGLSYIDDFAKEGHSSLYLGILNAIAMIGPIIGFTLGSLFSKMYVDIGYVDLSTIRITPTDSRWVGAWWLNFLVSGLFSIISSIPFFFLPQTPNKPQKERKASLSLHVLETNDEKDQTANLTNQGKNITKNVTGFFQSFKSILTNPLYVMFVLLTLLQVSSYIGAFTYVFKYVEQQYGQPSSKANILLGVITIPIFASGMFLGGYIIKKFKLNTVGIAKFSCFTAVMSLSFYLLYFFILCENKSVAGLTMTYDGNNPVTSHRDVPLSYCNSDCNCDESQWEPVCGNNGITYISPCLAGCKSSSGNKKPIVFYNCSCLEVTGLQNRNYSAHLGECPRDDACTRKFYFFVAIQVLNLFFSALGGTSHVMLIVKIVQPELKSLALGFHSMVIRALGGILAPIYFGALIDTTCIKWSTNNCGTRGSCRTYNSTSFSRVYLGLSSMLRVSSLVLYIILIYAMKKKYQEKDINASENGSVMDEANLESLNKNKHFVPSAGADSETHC

In the case of `CC1(C)CCC(CN2CCN(c3ccc(C(=O)NS(=O)(=O)c4ccc(NCC5CCOCC5)c([N+](=O)[O-])c4)c(Oc4cnc5[nH]ccc5c4)c3)CC2)=C(c2ccc(Cl)cc2)C1` [Venetoclax], the IC50 (OATP1B3) is reported as 26 ± 9.6 µM, the IC50 (MDCKII) is reported as 15.2 ± 2.4 µM and the “mRNA expression of CYP1A2” value (CYP1A2 [1]) is reported as “induced”. For the same compound, the “mRNA expression of UGT1A9” value (UGT1A9) was “induced”, the IC50 (OATP1B1) was 47.8 ± 10.1 µM and the “mRNA expression of CYP1A1” value (CYP1A1) was “induced”. For the same compound, the “IC50 CYP1A2 inhibition” value (CYP1A2 [2]) was “no inhibition”.

Source: paper PMC4810081, “Venetoclax (ABT-199) Might Act as a Perpetrator in Pharmacokinetic Drug–Drug Interactions” (Pharmaceutics, 2016)
